Our source for the relative viability values is the supplement of paper PMC10307832.

What all share (test): relative viability (nuclei count vs DMSO), 5 days (fraction); higher = more cells survive
Compound in assay [1]: C1=CC=C2C(=C1)N=C(S2)C(C#N)C3=NC(=NC=C3)NCCC4=CN=CC=C4 + Cc1cc(Nc2cc(N3CCN(C)CC3)nc(Sc3ccc(NC(=O)C4CC4)cc3)n2)n[nH]1 [Tozasertib] (partner 0.1 µM)
In short, it runs like this:
(§1)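 Relative viability is defined as nuclei in treated wells over nuclei in vehicle wells. Duplicate plates were run and medians reported. Lung cancer cell lines in 1536-well plates were dosed by pin tool one day after seeding, with one drug or with a fixed anchor-drug dose plus five library-drug doses (not always all listed) in √10 steps, and nuclei were counted after 5 days.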

Compound in the assay “Vandetanib + Pemetrexed”: COc1cc2/c(=N/c3ccc(Br)cc3F)nc[nH]c2cc1OCC1CCN(C)CC1 [Vandetanib] + Nc1nc2[nH]cc(CCc3ccc(C(=O)N[C@@H](CCC(=O)O)C(=O)O)cc3)c2c(=O)[nH]1 [Pemetrexed] (partner 0.2 µM)
In short, it runs like this: as §1

Compound in the assay “CUDC-101 + Pemetrexed”: C#Cc1cccc(Nc2ncnc3cc(OC)c(OCCCCCCC(=O)NO)cc23)c1 [CUDC-101] + Nc1nc2[nH]cc(CCc3ccc(C(=O)N[C@@H](CCC(=O)O)C(=O)O)cc3)c2c(=O)[nH]1 [Pemetrexed] (partner 0.2 µM)
In short, it runs like this:
as §1

Compound in the assay “Vandetanib + Palbociclib”: COc1cc2/c(=N/c3ccc(Br)cc3F)nc[nH]c2cc1OCC1CCN(C)CC1 [Vandetanib] + CC(=O)c1c(C)c2cnc(Nc3ccc(N4CCNCC4)cn3)nc2n(C2CCCC2)c1=O [Palbociclib] (partner 0.5 µM)
In short, it runs like this: as §1

For NCI-H2170, the relative viability was found to be 0.513 in assay [1] (first compound 0.005 µM); 0.759 in assay [1] (first compound 0.01581 µM); 0.661 in assay [1] (first compound 0.05 µM); 0.81 in assay [1] (first compound 0.1581 µM); 0.636 in assay [1] (first compound 0.5 µM); 0.278 with Vandetanib + Pemetrexed (first compound 0.02 µM). The relative viability in the assay with Vandetanib + Pemetrexed (first compound 0.06325 µM) came out at 0.249; with Vandetanib + Pemetrexed (first compound 0.2 µM), 0.265; with Vandetanib + Pemetrexed (first compound 0.6325 µM) it was 0.262; with Vandetanib + Pemetrexed (first compound 2 µM), 0.268; with CUDC-101 + Pemetrexed (first compound 0.01 µM), 0.281; with CUDC-101 + Pemetrexed (first compound 0.03162 µM) it was 0.257. The relative viability came to 0.24 in the assay with CUDC-101 + Pemetrexed (first compound 0.1 µM); 0.234 with CUDC-101 + Pemetrexed (first compound 0.3162 µM); 0.254 with CUDC-101 + Pemetrexed (first compound 1 µM); 0.402 with Vandetanib + Palbociclib (first compound 0.02 µM); 0.434 in the assay with Vandetanib + Palbociclib (first compound 0.06325 µM); 0.398 with Vandetanib + Palbociclib (first compound 0.2 µM). The results for the relative viability with Vandetanib + Palbociclib (first compound 0.6325 µM) and with Vandetanib + Palbociclib (first compound 2 µM) were 0.376 and 0.394, respectively.
NCI-H2228: the relative viability came out at 0.251 in assay [1] (first compound 0.005 µM); 0.232 in assay [1] (first compound 0.01581 µM); 0.211 in assay [1] (first compound 0.05 µM); 0.187 in assay [1] (first compound 0.1581 µM); 0.226 in assay [1] (first compound 0.5 µM); 0.284 in the assay with Vandetanib + Pemetrexed (first compound 0.02 µM). Also, the relative viability with Vandetanib + Pemetrexed (first compound 0.06325 µM) is 0.337; with Vandetanib + Pemetrexed (first compound 0.2 µM), 0.337; in the assay with Vandetanib + Pemetrexed (first compound 0.6325 µM), 0.343; with Vandetanib + Pemetrexed (first compound 2 µM), 0.292; in the assay with CUDC-101 + Pemetrexed (first compound 0.01 µM) it was 0.352; with CUDC-101 + Pemetrexed (first compound 0.03162 µM) it was 0.359. Further, the relative viability in the assay with CUDC-101 + Pemetrexed (first compound 0.1 µM) is 0.333; with CUDC-101 + Pemetrexed (first compound 0.3162 µM) it was 0.392; in the assay with CUDC-101 + Pemetrexed (first compound 1 µM), 0.346; in the assay with Vandetanib + Palbociclib (first compound 0.02 µM) it was 0.718; with Vandetanib + Palbociclib (first compound 0.06325 µM), 0.644; with Vandetanib + Palbociclib (first compound 0.2 µM) it was 0.804. The relative viability turned out to be 0.725 with Vandetanib + Palbociclib (first compound 0.6325 µM) and 0.659 with Vandetanib + Palbociclib (first compound 2 µM).
On to NCI-H2342, for which the relative viability stood at 0.403 in assay [1] (first compound 0.005 µM); 0.522 in assay [1] (first compound 0.01581 µM); 0.499 in assay [1] (first compound 0.05 µM); 0.47 in assay [1] (first compound 0.1581 µM); 0.456 in assay [1] (first compound 0.5 µM); 0.728 with Vandetanib + Pemetrexed (first compound 0.02 µM). Further, the relative viability in the assay with Vandetanib + Pemetrexed (first compound 0.06325 µM) worked out at 0.832; with Vandetanib + Pemetrexed (first compound 0.2 µM) it was 0.77; with Vandetanib + Pemetrexed (first compound 0.6325 µM), 0.801; with Vandetanib + Pemetrexed (first compound 2 µM), 0.668; with CUDC-101 + Pemetrexed (first compound 0.01 µM), 0.842; with CUDC-101 + Pemetrexed (first compound 0.03162 µM), 0.757. The relative viability is 0.76 with CUDC-101 + Pemetrexed (first compound 0.1 µM); 0.819 with CUDC-101 + Pemetrexed (first compound 0.3162 µM); 0.742 with CUDC-101 + Pemetrexed (first compound 1 µM); 0.525 in the assay with Vandetanib + Palbociclib (first compound 0.02 µM); 0.507 with Vandetanib + Palbociclib (first compound 0.06325 µM); 0.518 with Vandetanib + Palbociclib (first compound 0.2 µM). Further, the values for the relative viability with Vandetanib + Palbociclib (first compound 0.6325 µM) and with Vandetanib + Palbociclib (first compound 2 µM) were 0.477 and 0.569, respectively.
Consider NCI-H2347, for which the relative viability in assay [1] (first compound 0.005 µM) was determined as 0.758; in assay [1] (first compound 0.01581 µM), 0.533; in assay [1] (first compound 0.05 µM), 0.574; in assay [1] (first compound 0.1581 µM), 0.599; in assay [1] (first compound 0.5 µM), 0.412; with Vandetanib + Pemetrexed (first compound 0.02 µM), 0.433. The relative viability came to 0.393 with Vandetanib + Pemetrexed (first compound 0.06325 µM); 0.443 with Vandetanib + Pemetrexed (first compound 0.2 µM); 0.443 in the assay with Vandetanib + Pemetrexed (first compound 0.6325 µM); 0.427 in the assay with Vandetanib + Pemetrexed (first compound 2 µM); 0.458 in the assay with CUDC-101 + Pemetrexed (first compound 0.01 µM); 0.418 with CUDC-101 + Pemetrexed (first compound 0.03162 µM). The relative viability stood at 0.434 with CUDC-101 + Pemetrexed (first compound 0.1 µM); 0.479 in the assay with CUDC-101 + Pemetrexed (first compound 0.3162 µM); 0.405 with CUDC-101 + Pemetrexed (first compound 1 µM); 0.423 in the assay with Vandetanib + Palbociclib (first compound 0.02 µM); 0.315 with Vandetanib + Palbociclib (first compound 0.06325 µM); 0.476 with Vandetanib + Palbociclib (first compound 0.2 µM). Further, the relative viability with Vandetanib + Palbociclib (first compound 0.6325 µM) is 0.457; in the assay with Vandetanib + Palbociclib (first compound 2 µM) it was 0.443.
For the cell line NCI-H2405, the relative viability was 0.714 in assay [1] (first compound 0.005 µM); 0.72 in assay [1] (first compound 0.01581 µM); 0.672 in assay [1] (first compound 0.05 µM); 0.701 in assay [1] (first compound 0.1581 µM); 0.616 in assay [1] (first compound 0.5 µM); 0.987 in the assay with Vandetanib + Pemetrexed (first compound 0.02 µM). Also, the relative viability was determined as 0.982 with Vandetanib + Pemetrexed (first compound 0.06325 µM); 1.01 in the assay with Vandetanib + Pemetrexed (first compound 0.2 µM); 1.08 with Vandetanib + Pemetrexed (first compound 0.6325 µM); 0.836 with Vandetanib + Pemetrexed (first compound 2 µM); 1.07 in the assay with CUDC-101 + Pemetrexed (first compound 0.01 µM); 1 with CUDC-101 + Pemetrexed (first compound 0.03162 µM). Moreover, the relative viability with CUDC-101 + Pemetrexed (first compound 0.1 µM) was determined as 1.05; with CUDC-101 + Pemetrexed (first compound 0.3162 µM), 1.17; with CUDC-101 + Pemetrexed (first compound 1 µM), 0.967; in the assay with Vandetanib + Palbociclib (first compound 0.02 µM), 0.494; with Vandetanib + Palbociclib (first compound 0.06325 µM), 0.39; in the assay with Vandetanib + Palbociclib (first compound 0.2 µM), 0.514. Also, the relative viability in the assay with Vandetanib + Palbociclib (first compound 0.6325 µM) was 0.592; in the assay with Vandetanib + Palbociclib (first compound 2 µM) it was 0.514.
Take NCI-H3122: the relative viability amounted to 0.46 in assay [1] (first compound 0.005 µM); 0.419 in assay [1] (first compound 0.01581 µM); 0.433 in assay [1] (first compound 0.05 µM); 0.386 in assay [1] (first compound 0.1581 µM); 0.344 in assay [1] (first compound 0.5 µM); 0.192 with Vandetanib + Pemetrexed (first compound 0.02 µM). Also, the relative viability with Vandetanib + Pemetrexed (first compound 0.06325 µM) came out at 0.196; with Vandetanib + Pemetrexed (first compound 0.2 µM) it was 0.201; in the assay with Vandetanib + Pemetrexed (first compound 0.6325 µM) it was 0.202; with Vandetanib + Pemetrexed (first compound 2 µM) it was 0.208; with CUDC-101 + Pemetrexed (first compound 0.01 µM), 0.19; in the assay with CUDC-101 + Pemetrexed (first compound 0.03162 µM), 0.21. For the same cell line, the relative viability in the assay with CUDC-101 + Pemetrexed (first compound 0.1 µM) was 0.191; with CUDC-101 + Pemetrexed (first compound 0.3162 µM), 0.209; with CUDC-101 + Pemetrexed (first compound 1 µM), 0.22; with Vandetanib + Palbociclib (first compound 0.02 µM), 0.198; with Vandetanib + Palbociclib (first compound 0.06325 µM) it was 0.183; with Vandetanib + Palbociclib (first compound 0.2 µM) it was 0.126. Moreover, the relative viability with Vandetanib + Palbociclib (first compound 0.6325 µM) is 0.178; with Vandetanib + Palbociclib (first compound 2 µM) it was 0.228.
